Results from the NIST ThermoML archive (doi:10.1021/je049909d).

What was measured:
[1] = Liquid; for mass density / speed of sound: 298.15 K, 101.33 kPa; for speed of sound: Sing-around technique in a fixed-path interferometer
[2] = refractive index (Na D-line) (dimensionless); conditions: 298.15 K; 101.33 kPa; Liquid; Standard Abbe refractometry
[3] = xn = mol fraction of the nth substance listed; conditions: 298.15 K, 101.3 kPa, Liquid; for speed of sound: Sing-around technique in a fixed-path interferometer
[4] = refractive index (Na D-line) (dimensionless); xn = mol fraction of the nth substance listed; conditions: 298.15 K, 101.3 kPa, Liquid, Standard Abbe refractometry

CO [methanol]
Conditions	mass density [kg/m3]	refractive index	speed of sound [m/s]
[1]	786.56	–	1101.8
[2]	–	1.32634	–

Conditions	vapor or sublimation pressure [kPa]
[1], 337.9 K	101.3

C=COC(C)=O [vinyl acetate]
Conditions	mass density [kg/m3]	refractive index	speed of sound [m/s]
[1]	925.59	–	1115.6
[2]	–	1.39253	–

Conditions	vapor or sublimation pressure [kPa]
[1], 346.1 K	101.3

C=COC(=O)CC [vinyl propanoate]
Conditions	mass density [kg/m3]	refractive index	speed of sound [m/s]
[1]	909.69	–	1133.9
[2]	–	1.40153	–

[1], Ebulliometric method (Recirculating still)
Conditions	vapor or sublimation pressure [kPa]
320.7 K	17.5
325.3 K	21.5
329.4 K	25.5
333 K	29.5
336.3 K	33.5
339.3 K	37.5
341.9 K	41.5
344.4 K	45.5
346.8 K	49.5
348.9 K	53.5
350.9 K	57.5
352.8 K	61.5
354.7 K	65.5
356.3 K	69.5
358 K	73.5
359.6 K	77.5
361.1 K	81.5
362.6 K	85.5
364 K	89.5
365.4 K	93.5
366.7 K	97.5
368 K	101.3
368.1 K	101.3

C=COC(=O)CC [vinyl propanoate] + C=COC(C)=O
Conditions	mass density, [3] [kg/m3]	refractive index, [4]	speed of sound, [3] [m/s]
x2 = 0.05	910.31	1.40114	1132.8
x2 = 0.102	911.01	1.4007	1131.8
x2 = 0.167	911.87	1.40017	1130.5
x2 = 0.207	912.4	1.39986	1129.7
x2 = 0.264	913.2	1.39937	1128.6
x2 = 0.297	913.66	1.39906	1128
x2 = 0.354	914.5	1.3985	1126.9
x2 = 0.403	915.25	1.39817	1126
x2 = 0.466	916.22	1.39762	1124.9
x2 = 0.504	916.8	1.3973	1124.2
x2 = 0.545	917.48	1.3969	1123.4
x2 = 0.601	918.39	1.3964	1122.4
x2 = 0.65	919.18	1.39591	1121.6
x2 = 0.696	919.96	1.39554	1120.8
x2 = 0.753	920.95	1.39493	1119.8
x2 = 0.8	921.79	1.39456	1119
x2 = 0.839	922.51	1.3941	1118.3
x2 = 0.901	923.67	1.39358	1117.2
x2 = 0.955	924.72	1.39295	1116.3

C=COC(=O)CC [vinyl propanoate] + CO
Conditions	mass density, [3] [kg/m3]	refractive index, [4]	speed of sound, [3] [m/s]
x2 = 0.05	907.45	1.40022	1132.9
x2 = 0.101	905	1.39881	1131.7
x2 = 0.168	901.52	1.3968	1130.2
x2 = 0.198	899.81	1.39573	1129.5
x2 = 0.242	897.25	1.39416	1128.4
x2 = 0.311	892.66	1.39141	1126.7
x2 = 0.337	890.92	1.39039	1126
x2 = 0.39	886.94	1.38789	1124.6
x2 = 0.452	881.8	1.38474	1122.8
x2 = 0.526	874.78	1.38044	1120.5
x2 = 0.547	872.66	1.37911	1119.8
x2 = 0.597	867.2	1.37583	1118
x2 = 0.657	859.7	1.37115	1115.9
x2 = 0.708	852.65	1.36685	1114.1
x2 = 0.748	846.29	1.36283	1112.6
x2 = 0.8	837.26	1.35725	1110.7
x2 = 0.85	827.36	1.3512	1108.7
x2 = 0.899	816.21	1.34444	1106.5
x2 = 0.949	803.01	1.33649	1104.9
